Assay results as given in patent publication US12054479B1, “Multicyclic compounds” (SLAP Pharmaceuticals LLC, priority 2022, dated 2024).

Legend:
[1] = target: T1, PARP1 (Homo sapiens, UniProt P09874); assay: biochemical assay (Table 2); FP binding assay (PARP1, PARP2) with PARPi-FL; conditions: Table 2, results of the biochemical assay
Experimental: FP Binding Assay (PARP1, PARP2)
The PARP1 and PARP 2 protein and the PARPi-FL were purchased from BPS Bioscience. The assay buffer was 50 mM Tris pH 8.0, 0.001% Triton X-100, 10 mM MgCl2, 150 mM NaCl. The compounds were diluted into top point concentration in 384PP-plate and transferred serially into an Optiplate-384F plate. Compound (20 nL) or DMSO was added to assay plate and then 10 uL of 40 nM PARP1 or PARP2 (diluted using assay buffer) was added. The assay plate was centrifuged at 1000 rpm for 1 min and then incubated for 30 min at rt. 6 nM PARPi-FL (diluted using assay buffer) (10 uL) was added to the plate (final concentration of PARP1 and PARP2 was 20 nM, and PARPi-FL was 3 nM). After centrifuging at 1000 rpm for 1 min, the assay plate was incubated at rt 4 h. The plates were read using Envision with Excitation filter. The data analysis was done by calculating the inhibition rate using mP value using the following equation. Inhibition (%)=(1−mpC−mpL)/mpH−mpL×100%.
As shown by the results in Table 2, compounds of Formula (I), including pharmaceutically acceptable salts thereof, are effective PARP1 inhibitors.

[2] = target: T1, PARP1; assay: cell-based assay (Table 1); proliferation assay (PARP inhibitors) in DLD-1 wt and DLD-1 BRCA2, CTG detection; design: endogenous in cells; host or cells: DLD-1 wt and DLD-1 BRCA2 (-/-); conditions: Table 1, results of the cell-based assay; cell line (DLD-1 wt or DLD-1 BRCA2) not given
Experimental: Proliferation Assay (PARP Inhibitors) in DLD-1 wt and DLD-1 BRCA2
DLD-1-wt and DLD-1 mutant cells are cultured in RPMI 1640+10% FBS+1% PS. The cells are harvested into culture media for 2-3 days. The cells are diluted into culture media (density 2˜3×10^6) and 40 uL of cell suspension (50 cells/well for DLD-1 wt and 50 cells/well for DLD-1 BRCA (−/−). The plates are covered and spun at rt at 1000 rpm, for 1 minute and then transferred. The plates are placed into 37° C. 5% CO2 incubator overnight. Test compounds are dissolved at 10 mM DMSO stock solution and then 40 uL of stock solution is transferred to a 384 PP-plate. A 10-point dilution is carried out by transferring 10 uL compound into 30 μL DMSO by using TECAN (EVO200) liquid handler. The plates are spun at rt at 1000 rpm for 1 minute and then shaken on a plate shaker for 2 minutes. Forty nL of diluted compound is transferred into the cell plate by using a liquid handler. After 7 days of incubation, a CTG detection assay is performed. The CTG detection assay is carried out by removing the plates from the incubators and then equilibrated at rt for 15 minutes. The CellTiter Glo reagents are thawed and equilibrated at rt. CellTiter-Glo reagent (30 μL) is added into each well, and the plates are placed at rt for 30 minutes followed by reading on EnVision. The inhibition activity is calculated using the formula: % Inhibition=100×(LumHC−LumSample)/(LumHC−LumLC).
In Table 1, ‘A’ indicates an IC50 of <0.1 μM, ‘B’ indicates an IC50 of ≥0.1 μM and <1.0 μM, and ‘C’ indicates an IC50 of ≥1.0 μM. As shown by the results in Table 1, compounds of Formula (I), including pharmaceutically acceptable salts thereof, are effective PARP1 inhibitors.

T1 sequence (P09874 whole entry): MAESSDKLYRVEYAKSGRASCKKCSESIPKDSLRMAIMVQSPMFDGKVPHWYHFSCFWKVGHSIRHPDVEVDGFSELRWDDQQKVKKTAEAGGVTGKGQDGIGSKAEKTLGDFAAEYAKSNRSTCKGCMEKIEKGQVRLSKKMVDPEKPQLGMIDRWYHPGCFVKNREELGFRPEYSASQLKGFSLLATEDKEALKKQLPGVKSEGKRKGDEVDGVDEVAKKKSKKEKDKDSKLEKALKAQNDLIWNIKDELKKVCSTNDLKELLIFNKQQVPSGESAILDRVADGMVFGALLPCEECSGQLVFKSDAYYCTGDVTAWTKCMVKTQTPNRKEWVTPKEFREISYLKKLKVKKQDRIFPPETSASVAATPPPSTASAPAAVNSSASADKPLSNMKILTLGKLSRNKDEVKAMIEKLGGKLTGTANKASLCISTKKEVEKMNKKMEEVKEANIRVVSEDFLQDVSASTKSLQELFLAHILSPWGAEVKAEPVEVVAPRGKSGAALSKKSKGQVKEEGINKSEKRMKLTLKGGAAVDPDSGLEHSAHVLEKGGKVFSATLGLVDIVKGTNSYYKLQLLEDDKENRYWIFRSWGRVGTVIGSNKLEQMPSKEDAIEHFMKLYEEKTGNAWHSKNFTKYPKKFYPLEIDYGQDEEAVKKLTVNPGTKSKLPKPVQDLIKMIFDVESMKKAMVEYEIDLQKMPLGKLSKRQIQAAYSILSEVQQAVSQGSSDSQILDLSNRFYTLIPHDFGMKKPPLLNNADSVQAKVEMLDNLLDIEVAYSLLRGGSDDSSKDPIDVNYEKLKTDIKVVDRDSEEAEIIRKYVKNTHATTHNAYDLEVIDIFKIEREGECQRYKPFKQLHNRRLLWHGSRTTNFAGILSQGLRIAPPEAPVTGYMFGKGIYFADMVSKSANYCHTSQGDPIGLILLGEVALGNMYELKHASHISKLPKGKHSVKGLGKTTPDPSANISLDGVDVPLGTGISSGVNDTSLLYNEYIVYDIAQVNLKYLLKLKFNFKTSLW

Row | SMILES | IC50 [1] | IC50 [2]
1 | CNC(=O)c1ccc(N2CCN(Cc3ccc4c(c3F)NC(=O)C3(CC3)O4)CC2)c(C)n1 [Compound A8] | < 5 nM | < 100 nM
2 | CCC1Oc2ccc(CN3CCN(c4ccc(C(=O)NC)nc4F)CC3)c(F)c2NC1=O (single isomer, unassigned) [Compound 3ab] |  | < 100 nM
3 | CCC1Oc2ccc(CN3CCN(c4ccc(C(=O)NC)nc4F)CC3)c(F)c2NC1=O (single isomer, unassigned) [Compound 3aa] |  | < 100 nM
